The nature of series [1]: Plasma pharmacokinetics after single i.v. dose. It is filed as in vivo, Sprague Dawley rats. The conditions noted are these: Sprague-Dawley, iv, rat.

Like-named read-outs stand apart in the source and are kept apart here.

These results are taken from patent publication US6610684B2, “Fused azepinone cyclin dependent kinase inhibitors” (The United States of America as represented by the …, priority 1998, dated 2003).

Broadly, the melting point is the temperature of the solid-liquid transition. By clearance is commonly meant the volume of plasma or blood freed of the substance per unit of time. Read a low clearance as a low capacity for elimination. Broadly, the half-life is the time in which the quantity being followed falls by half.

The molecule `COc1cc2c(cc1OC)-c1[nH]c3ccc(C#N)cc3c1CC(=O)N2` [2,3-dimethoxy, 9-cyano, 2,3-dimethoxy-6-oxo-5,6,7,12-tetrahydro-indolo[3,2-d][1]benzazepine-9-carbonitrile] returned a melting point above 330 °C. `COc1cc2c(cc1OC)-c1[nH]c3ccc([N+](=O)[O-])cc3c1CC(=O)N2` [2,3-dimethoxy, 9-nitro, 2,3-dimethoxy-9-nitro-7,12-dihydro-indolo[3,2-d][1]benzazepin-6(5H)-one] had a melting point above 330 °C. Same read-out and setting: the figure for `O=C1Cc2c([nH]c3ccc([N+](=O)[O-])cc23)-c2cc(Br)ccc2N1` [2-Br,9-nitro, 2-bromo-9-nitro-7,12-dihydro-indolo[3,2-d][1]benzazepin-6(5H)-one] is above 330 °C. Same read-out and setting: the figure for `O=C1Cc2c([nH]c3ccc(C(F)(F)F)cc23)-c2cc(C#CC3(O)CCCCC3)ccc2N1` [2-[2-(1-hydroxycyclohexyl)-ethinyl]-9-trifluoromethyl-7,12-dihydro-indolo[3,2-d][1]-benzazepin-6(5H)-one] is above 330 °C; for `COOC/C=C/c1ccc2c(c1)-c1[nH]c3ccc(C(F)(F)F)cc3c1CC(=O)N2` [3-(6-oxo-9-trifluoromethyl-5,6,7,12-tetrahydro-indolo[3,2d][1]benzazepin-2-yl)-acrylic acid methyl ester] it is above 330 °C; for `S=C1Cc2c([nH]c3ccc(Br)cc23)-c2ccccc2N1` [6 = S, 9-Br, 9-bromo-7,12-dihydro-indolo[3,2-d][1]benzazepine-6(5H) -thione] it is above 330 °C. The same measure, in the same setting: the figure for `O=C1Cc2c([nH]c3ccccc23)-c2cc(Br)ccc2N1` [Example 2-Br, 2-bromo-7,12-dihydro-indolo[3,2-d][1]benzazepin-6(5H)-one] is above 330 °C; for `COc1ccc2[nH]c3c(c2c1)CC(=O)Nc1ccccc1-3` [Example 9-OCH3, 7,12-dihydro-9-methoxy-indolo[3,2-d][1]benzazepin-6(5H)-one] it is above 330 °C.

For `O=C1Cc2c([nH]c3ccc([N+](=O)[O-])cc23)-c2ccccc2N1` [Example 9-nitro, 9-nitro-7,12-dihydro-indolo[3,2-d][1]benzazepin-6(5H)-one], the clearance in series [1] (single i.v. 5 mg/kg in DMSO) came to 16 mL/min/kg; in series [1] (single i.v. 10 mg/kg in DMSO), 14 mL/min/kg. For the same molecule, the half-life came to 46 min in series [1] (single i.v. 5 mg/kg in DMSO, read-out: half life in the plasma) and 66 min in series [1] (single i.v. 10 mg/kg in DMSO, read-out: half life in plasma). Take `O=C1Cc2c([nH]c3ccc(Br)cc23)-c2cc(C[C@@H]3CO3)ccc2N1` [Example 34]: the melting point is 308 to 310 °C (dec.).
